Our source for the IC50 values is patent US8865894B2, “Oxazolidin-2-one compounds and uses thereof” (Novartis AG, priority 2012, dated 2014).

For test [1], the target named is T1, mTOR (Mus musculus, UniProt Q9JLN9).
T1 construct: endogenous in cells; host or cells: TSC1-/- MEF (mouse embryo fibroblasts)
The test is described as follows: Cellular assay mTOR (phospho-T389 S6K1 SureFire in TSC1-/- MEF cells). Particulars: TSC1-/- MEF cells; read-out: mTOR S6K(T389)_TSC1ko/ IC50. Format: cell-based. The source says: A cell based assay (384-well format) was developed for determination of compound effects on cellular mTOR kinase activity in MEF (mouse embryo fibroblasts) cells derived from mice lacking TSC1 (Tuberosclerosis Complex1) a potent suppressor of mTOR kinase activity. Due to lack of TSC1 the mTOR kinase is constitutively activated resulting in permanent phosphorylation of Thr 389 of S6 kinase 1 (S6K1) which is one of the downstream targets of mTOR.
Using a SureFire Kit that enables to determine the phosphorylation of Thr389 on the S6K1 an assay was developed, validated and implemented in the Alpha-Screen format that allows the quantitative determination of phospho-T389 of S6K1 in cell lysates. […] These were in agreement with those values obtained with the biochemical mTOR ATP-binding assay enabling a quantitative comparison of potency of mTOR inhibitors.
TSC1−/− MEFs cells (Kwiatkowski, D. J., Zhang, H., Bandura, J. L., Heiberger, K. M., Glogauer, M., el-Hashemite, N., and Onda, H. (2002) Hum. Mol. Genet. 11, 525-534) were cultured in DMEM high glucose medium supplemented with 10% FBS (Invitrogen), 2 mM Glutamine and 1% (w/v) Penicillin/Streptomycin at 37° C., 5% CO2.
The SureFire kit for determination of P70S6kinase phosphorylation was purchased from Perkin Elmer (p70S6K p-T389, #TGR70S50K) and the assay was performed according to the instructions of the supplier and according to the generic method for SureFire assays. Shortly, 5 μL cell lysate per well were transferred to 384-well white proxy-plates (for luminescent readout) and mixed with […] and […] (final volume: 12 μL). After 3 h incubation in the dark at RT luminescence was read with the Envision Reader (Perkin Elmer). Untreated cells were used as control (high control) and cells treated with 3 μM BEZ235 were used as low control. The assay window between the signals obtained for the high and the low controls were defined as 100% and compound effects were expressed as percent inhibition. IC50 values were calculated from the dose response curves by graphical extrapolation.

In test [2] the target is T2, human PI3Kalpha p110 catalytic subunit (Rat-1 pBABEpuro Myr-HA-hp110alpha) (Homo sapiens, UniProt P42336).
T2 construct: Myr (myristoylation signal) (N); HA (N); expressed in transfected cells; host or cells: Rat-1
T2 sequence (P42336 whole entry): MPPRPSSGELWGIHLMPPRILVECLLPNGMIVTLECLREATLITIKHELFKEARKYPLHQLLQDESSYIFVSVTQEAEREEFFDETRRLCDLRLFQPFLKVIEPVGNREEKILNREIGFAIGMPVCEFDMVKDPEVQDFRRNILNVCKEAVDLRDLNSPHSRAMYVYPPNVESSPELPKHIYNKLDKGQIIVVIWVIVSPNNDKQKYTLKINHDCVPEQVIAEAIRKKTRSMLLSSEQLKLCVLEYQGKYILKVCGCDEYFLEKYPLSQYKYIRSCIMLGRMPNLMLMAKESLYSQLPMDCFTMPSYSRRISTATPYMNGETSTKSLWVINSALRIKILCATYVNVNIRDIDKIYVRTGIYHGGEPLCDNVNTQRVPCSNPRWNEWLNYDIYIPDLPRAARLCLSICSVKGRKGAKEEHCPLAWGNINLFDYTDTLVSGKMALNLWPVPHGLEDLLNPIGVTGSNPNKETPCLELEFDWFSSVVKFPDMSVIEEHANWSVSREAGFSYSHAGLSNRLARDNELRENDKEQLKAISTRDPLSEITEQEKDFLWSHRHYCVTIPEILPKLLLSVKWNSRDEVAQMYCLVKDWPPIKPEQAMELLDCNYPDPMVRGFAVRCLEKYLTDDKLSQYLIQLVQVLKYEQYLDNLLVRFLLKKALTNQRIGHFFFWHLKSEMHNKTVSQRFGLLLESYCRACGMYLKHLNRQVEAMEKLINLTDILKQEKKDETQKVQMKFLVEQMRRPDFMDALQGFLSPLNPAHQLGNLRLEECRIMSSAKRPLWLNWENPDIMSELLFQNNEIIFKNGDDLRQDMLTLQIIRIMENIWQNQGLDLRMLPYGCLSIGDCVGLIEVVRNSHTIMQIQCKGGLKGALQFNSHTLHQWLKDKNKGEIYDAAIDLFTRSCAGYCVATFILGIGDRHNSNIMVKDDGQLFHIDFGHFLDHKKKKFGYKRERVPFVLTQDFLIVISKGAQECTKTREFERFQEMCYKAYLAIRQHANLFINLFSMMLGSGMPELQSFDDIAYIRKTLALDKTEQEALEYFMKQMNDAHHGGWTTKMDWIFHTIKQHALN
T2 sequence (Q63787 whole entry partner): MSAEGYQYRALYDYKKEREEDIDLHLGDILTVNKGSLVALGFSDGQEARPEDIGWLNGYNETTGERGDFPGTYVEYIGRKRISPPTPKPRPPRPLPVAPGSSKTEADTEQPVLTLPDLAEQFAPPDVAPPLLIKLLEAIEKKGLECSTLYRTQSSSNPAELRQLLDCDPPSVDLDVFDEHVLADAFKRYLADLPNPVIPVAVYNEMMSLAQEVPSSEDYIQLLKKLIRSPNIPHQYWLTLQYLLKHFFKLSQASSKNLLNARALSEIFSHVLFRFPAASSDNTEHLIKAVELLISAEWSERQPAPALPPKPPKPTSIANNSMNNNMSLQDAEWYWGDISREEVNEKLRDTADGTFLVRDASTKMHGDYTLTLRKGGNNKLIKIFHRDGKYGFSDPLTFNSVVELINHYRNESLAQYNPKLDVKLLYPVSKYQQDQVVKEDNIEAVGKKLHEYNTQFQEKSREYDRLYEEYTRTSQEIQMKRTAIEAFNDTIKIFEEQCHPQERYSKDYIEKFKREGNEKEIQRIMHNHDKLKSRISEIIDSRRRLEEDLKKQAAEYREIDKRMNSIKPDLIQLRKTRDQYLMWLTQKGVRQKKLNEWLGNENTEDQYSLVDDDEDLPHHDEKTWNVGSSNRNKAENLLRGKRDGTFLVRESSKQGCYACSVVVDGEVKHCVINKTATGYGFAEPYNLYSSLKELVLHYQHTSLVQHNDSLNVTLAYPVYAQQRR
Kind of test: Cellular assay PI3Kalpha (p-Akt(S473) SureFire, Rat-1_PI3Kalpha cells). The class given is cell-based. Particulars: 1 h compound treatment, read-out: Rat1-PI3Ka/ IC50. The source says: AlphaScreen (Amplified Luminescent Proximity Homogeneous Assay, ALPHA, Perkin Elmer) is a non-radioactive bead-based proximity assay technology to study biomolecular interactions in a homogenous microtiter plate format. The brand name SureFire denotes AlphaScreen assays that are adapted to quantify the phosphorylation of endogenous cellular proteins in cell lysates, by using matched antibody pairs, which consist of an anti-phospho-kinase and an anti-kinase antibody. The assay allows characterization of kinase signaling in cells as well as measurement of kinase inhibitor effects. The AlphaScreen technology provides several advantages over standard assay techniques such as ELISA, as it avoids time-consuming washing procedures and reduces plate handling. Furthermore, it is miniaturizable at least to a 384-well format and provides sensitivity down to the femtomolar range, dependent on the affinity of the antibodies included in the individual AlphaScreen SureFire assay kit. High sensitivity is reached by an intrinsic amplification mechanism, which involves production of singlet oxygen molecules. SureFire assay kits are commercially available for specific targets and include pairs of validated antibodies (PerkinElmer). This report describes common procedures applied for AlphaScreen SureFire assays and respective semi-automated steps for routine kinase inhibitor profiling in cell-based assays.
The Rat-1 cell lines stably overexpressing activated PI3K class I isoforms Rat-1 pBABEpuro Myr-HA-hp110 delta (Rat-1_PI3Kdelta) and Rat-1 pBABEpuro Myr-HA-hp110alpha (Rat-1_PI3Kalpha) and Rat-1 pBABEpuro Myr-HA-hp110 beta (Rat-1_PI3beta) were prepared as described (Maira S M, Stauffer F, Brueggen J, Furet P, Schnell C, Fritsch C, Brachmann S, Chène P, de Pover A, Schoemaker K, Fabbro D, Gabriel D, Simonen M, Murphy L, Finan P, Sellers W, García-Echeverría C (2008), Mol Cancer Ther. 7:1851-63 and Maira S M, Pecchi S, Brueggen J, Huh K, Schnell C, Fritsch C, Nagel T, Wiesmann M, Brachmann S, Dorsch M, Chène P, Schoemaker K, De Pover A, Menezes D, Fabbro D, Sellers W, García-Echeverría C, Voliva C F (2011), Mol. Cancer Ther., accepted). All cell lines were cultivated in complete growth medium (DMEM high glucose, 10% (v/v) fetal bovine serum, 1% (v/v) MEM NEAA, 10 mM HEPES, 2 mM L-glutamine, puromycin (10 μg/mL for Rat-1_PI3Kdelta and Rat-1_PI3Kalpha, 4 ug/mL for Rat-1_PI3beta), 1% (v/v) Pen/Strep) to 90% confluency at 37° C./5% CO2/90% humidity in a humidified CO2 incubator and were split twice a week.
The following materials were used for p-AKT(S473) detection in Rat-1 cell lysates: Dulbecco's modified Eagle's medium (DMEM) high glucose (Gibco Invitrogen, Basel, Switzerland, Cat. No. 41965), Heat Inactivated Fetal Bovine Serum, Qualified (HI FBS; Gibco Invitrogen, Basel, Switzerland, Lot. No. 16140), MEM non essential amino acids (NEAA; Gibco Invitrogen, Basel, Switzerland, Cat. No. 11140), HEPES (Gibco Invitrogen, Basel, Switzerland, Cat. No. 15630), Penicillin/Streptomycin (Pen/Strep, 100×; Gibco Invitrogen, Basel, Switzerland, Cat. No. 15140-122), L-Glutamine (Gibco Invitrogen, Basel, Switzerland, Cat. No. 25030), Puromycin (Sigma Aldrich, Buchs, Switzerland, Cat. No. P9620), DMSO (MERCK, Dietikon, Switzerland, Cat. No. 8.02912.2500), H2O, MilliQ-H2O unless otherwise stated (MILLIPORE QGARDOOR1, Millipore, Zug, Switzerland), Bovine serum albumine (BSA; Sigma Aldrich, Buchs, Switzerland Cat. No. A8412), SureFire p-Akt 1/2 (Ser473) Assay Kit (PerkinElmer, Schwerzenbach, Switzerland, Cat. No. TGRAS50K).
The p-Akt(S473) SureFire assay measures the phosphorylation of endogenous cellular Akt 1/2 at Ser473 in cell lysates. Using Rat-1 cells stably expressing myr-HA-tagged versions of the human PI3Kdelta, PI3Kalpha, or PI3Kbeta p110 catalytic subunit isoforms, the assay was developed as a two-plate protocol in a 384-well format.

Consider `C[C@H]1C(CC(C)(C)O)OC(=O)N1c1cc(-c2cnc(N)nc2C(F)(F)F)nc(N2CCOCC2)n1` (mixture of isomers) [Example 26, (4S,5R)- and (4S,5S)-3-(2′-amino-2-morpholino-4′-(trifluoromethyl)-[4,5′-bipyrimidin]-6-yl)-5-(2-hydroxy-2-methylpropyl)-4-methyloxazolidin-2-one], for which the IC50 turned out to be 0.857 µM in test [1] and 0.058 µM in test [2].
In the same order, the values of `CC1(CO)COC(=O)N1c1cc(-c2cnc(N)nc2C(F)(F)F)nc(N2CCOCC2)n1` (racemic) [Example 3, 3-(2′-amino-2-morpholino-4′-(trifluoromethyl)-4,5′-bipyrimidin-6-yl)-4-(hydroxymethyl)-4-methyloxazolidin-2-one] are 0.759 µM and 0.147 µM.
Regarding `Nc1ncc(-c2cc(N3C(=O)O[C@@H]4[C@@H](O)CC[C@@H]43)nc(N3CCOCC3)n2)c(C(F)(F)F)n1` (racemic) [Example 22, (3aR*,6R*,6aR*)-3-(2′-Amino-2-morpholino-4′-(trifluoromethyl)-[4,5′-bipyrimidin]-6-yl)-6-hydroxyhexahydro-2H-cyclopenta[d]oxazol-2-one], the IC50 in test [1] amounted to 1.39 µM; in test [2], 0.095 µM.
In the same order, the values of `Nc1ncc(-c2cc(N3C(=O)OC4C(O)CCC43)nc(N3CCOCC3)n2)c(C(F)(F)F)n1` (single isomer, unassigned) [Example 22A] are 2.12 µM and 0.086 µM.
`Nc1ncc(-c2cc(N3C(=O)OC4C(O)CCC43)nc(N3CCOCC3)n2)c(C(F)(F)F)n1` (single isomer, unassigned) [Example 22B]: the figures for the IC50 in test [1] and in test [2] were 2.3 µM and 0.148 µM, respectively.
Regarding `C[C@@H](O)C[C@H]1OC(=O)N(c2cc(-c3cnc(N)nc3C(F)(F)F)nc(N3CCOCC3)n2)[C@H]1C` (single isomer, unassigned) [Example 24], the IC50 was determined as 1.83 µM in test [1] and 0.045 µM in test [2].
As for `C[C@H](O)CC1OC(=O)N(c2cc(-c3cnc(N)nc3C(F)(F)F)nc(N3CCOCC3)n2)[C@H]1C` (single isomer, unassigned) [Example 25], the IC50 was found to be 1.83 µM in test [1] and 0.045 µM in test [2].
On to `C[C@H]1COC(=O)N1c1cc(-c2cnc(N)nc2C(F)(F)F)nc(N2CCOCC2)n1` [Example 1, (S)-3-(2′-Amino-2-morpholin-4-yl-4′-trifluoromethyl-[4,5′]bipyrimidinyl-6-yl)-4-methyl-oxazolidin-2-one], for which the IC50 worked out at 0.964 µM in test [1] and 0.048 µM in test [2].
As to `CC1(C)OC(=O)N(c2cc(-c3cnc(N)nc3C(F)(F)F)nc(N3CCOCC3)n2)[C@H]1CO` [Example 2, (S)-3-(2′-Amino-2-morpholin-4-yl-4′-trifluoromethyl-[4,5′]bipyrimidinyl-6-yl)-4-hydroxymethyl-5,5-dimethyl-oxazolidin-2-one], in test [2], the IC50 came out at 0.134 µM.
Regarding `Nc1ncc(-c2cc(N3C(=O)O[C@H]4CCCC[C@@H]43)nc(N3CCOCC3)n2)c(C(F)(F)F)n1` [Example 4, (3aS,7aS)-3-(2′-Amino-2-morpholin-4-yl-4′-trifluoromethyl-[4,5′]bipyrimidinyl-6-yl)-hexahydro-benzooxazol-2-one], the IC50 in test [1] came to 0.647 µM; in test [2] it was 0.031 µM.
As for `COC[C@H]1COC(=O)N1c1cc(-c2cnc(N)nc2C(F)(F)F)nc(N2CCOCC2)n1` [Example 5, (S)-3-(2′-Amino-2-morpholin-4-yl-4′-trifluoromethyl-[4,5′]bipyrimidinyl-6-yl)-4-methoxymethyl-oxazolidin-2-one], the values for the IC50 in test [1] and in test [2] were 1.41 µM and 0.093 µM, respectively.
In the case of `C[C@@H]1OC(=O)N(c2cc(-c3cnc(N)nc3C(F)(F)F)nc(N3CCOCC3)n2)[C@H]1CO` [Example 6], the IC50 in test [1] was 0.574 µM; in test [2], 0.094 µM.
On to `[2H]C1([2H])OC([2H])([2H])C([2H])([2H])N(c2nc(-c3cnc(N)nc3C(F)(F)F)cc(N3C(=O)O[C@H](C)[C@@H]3CO)n2)C1([2H])[2H]` [Example 8], for which the IC50 amounted to 0.994 µM in test [1] and 0.081 µM in test [2].
